Data from PubChem BioAssay (NCI).
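How tested: cells in 96-well plates exposed to compound for 48 hours at five concentrations. The concentration for 50% growth inhibition is given as GI50. At the TGI there is no net growth.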

Key:
Experiment in all cases: growth of human tumour cells (NCI), 48 h
NCI/ADR-RES ovarian = tested on: NCI/ADR-RES ovarian
NCI-H522 lung = tested on: NCI-H522 lung
T-47D breast = tested on: T-47D breast
MCF7 breast = tested on: MCF7 breast
ACHN renal = tested on: ACHN renal
SK-MEL-2 melanoma = tested on: SK-MEL-2 melanoma
MDA-N = tested on: MDA-N
PC-3 prostate = tested on: PC-3 prostate

SMILES | TGI (NCI/ADR-RES ovarian) [µM] | TGI (NCI-H522 lung) [µM] | TGI (T-47D breast) [µM] | TGI (MCF7 breast) [µM] | TGI (ACHN renal) [µM] | TGI (SK-MEL-2 melanoma) [µM] | TGI (MDA-N) [µM] | TGI (PC-3 prostate) [µM] | GI50 (NCI-H522 lung) [µM] | GI50 (T-47D breast) [µM] | GI50 (MCF7 breast) [µM] | GI50 (ACHN renal) [µM] | GI50 (SK-MEL-2 melanoma) [µM] | GI50 (PC-3 prostate) [µM]
COc1ccc(N=C/C=C/Nc2ccc(OC)cc2)cc1 | 25 | 23.7 | 35.3 | 16.3 | 29 | 31 | 14.4 | 26.1 | – | – | – | – | – | –
Cc1nc2ccccc2n1CCc1nc2ccccc2s1 | > 100 | > 100 | > 100 | > 100 | > 100 | > 100 | > 100 | > 100 | – | – | – | – | – | –
NNC(=O)c1ccccc1NC(=O)/C(=C/c1ccccc1)NC(=O)c1ccccc1 | > 100 | > 100 | > 100 | > 100 | > 100 | > 100 | > 100 | > 100 | – | – | – | – | – | –
O=S1(=O)c2ccccc2N2CCCc3cc(Cl)cc1c32 | > 100 | – | – | > 100 | > 100 | > 100 | > 100 | > 100 | – | – | – | – | – | –
COc1ccc(-c2cc(-c3ccc(Nc4ccnc5cc(Cl)ccc45)cc3)nc(N)c2C#N)c2ccccc12 | > 100 | > 100 | > 100 | > 100 | > 100 | > 100 | > 100 | > 100 | – | – | – | – | – | –
Cc1cc2ccccc2c[n+]1CC(=O)CC([O-])(C(F)(F)F)C(F)(F)F | > 100 | > 100 | > 100 | – | > 100 | > 100 | > 100 | > 100 | – | – | – | – | – | –
COC(=O)c1c(O)ccc2c1c1c(n2C)C(=O)c2ccccc2C1=O | > 100 | > 100 | 13.1 | > 100 | 35.8 | > 100 | – | > 100 | – | – | – | – | – | –
CC1(C)N=C(N)N=C(N)N1c1cccc(CSc2ccccc2)c1 | > 100 | 27.3 | > 100 | > 100 | > 100 | > 100 | > 100 | > 100 | – | – | – | – | – | –
O=C1CC(c2cccc(Cl)c2)n2cccc21 (stereo not drawn) | > 100 | – | > 100 | > 100 | > 100 | > 100 | – | > 100 | – | – | – | – | – | –
C=C[C@H]1CN2CC[C@H]1C[C@@H]2[C@@H](O)c1ccnc2ccccc12 | > 100 | > 100 | > 100 | > 100 | > 100 | > 100 | > 100 | > 100 | – | – | – | – | – | –
CO[P@]1(=O)O[C@@H](c2ccccc2)[C@H](O)[C@]1(O)c1ccccc1 | > 100 | > 100 | > 100 | > 100 | > 100 | > 100 | > 100 | > 100 | – | – | – | – | – | –
CCCCCCCCOCC1S(=O)(=O)OCCOS1(=O)=O | > 100 | > 100 | > 100 | – | > 100 | > 100 | > 100 | > 100 | – | – | – | – | – | –
O=c1[nH]cnc2c1ncn2[C@H]1CO[C@@H](CO)[C@@H]1O | > 100 | > 100 | > 100 | > 100 | > 100 | > 100 | > 100 | > 100 | – | – | – | – | – | –
COc1ccc2c(c1)CC[C@@H]1[C@@H]2CC[C@]2(C)/C(=N/OCCN3CCCCC3)CC[C@@H]12 | 24.2 | 18.9 | 19.2 | 21.8 | 21.3 | 18.7 | 5.9 | 17.7 | – | – | – | – | – | –
Brc1ccc2c(c1)C1=C(CO2)Cc2ccccc2O1 | 58.3 | 39.8 | 33.2 | – | 33.3 | 34.3 | 27 | 32.9 | – | – | – | – | – | –
CN(C)c1ccc(/C=N/NC2=N/C(=C\c3ccco3)C(=O)N2)cc1 | > 100 | > 100 | > 100 | – | > 100 | > 100 | > 100 | > 100 | – | – | – | – | – | –
CCCCCC(C)C[C@H]1CO[C@H](c2ccc[nH]2)N[C@H]1C(=O)OC (stereo partly drawn) | > 100 | > 100 | > 100 | > 100 | > 100 | > 100 | > 100 | > 100 | – | – | – | – | – | –
O=C(O)C(Cc1cccs1)C(=O)O | > 100 | > 100 | > 100 | > 100 | > 100 | > 100 | > 100 | > 100 | – | – | – | – | – | –
CN(C)Cc1cc(C(=O)/C=C/c2ccc(/C=C/C(=O)c3cc(CN(C)C)c(O)c(CN(C)C)c3)cc2)cc(CN(C)C)c1O | > 100 | 40.1 | > 100 | > 100 | > 100 | > 100 | – | 49.6 | – | – | – | – | – | –
CN(C)CCCOC(=O)C(O)(Cc1ccccc1)C1CC1 (stereo not drawn) | > 100 | > 100 | > 100 | > 100 | > 100 | > 100 | > 100 | > 100 | – | – | – | – | – | –
COc1cc(C2c3cc4c(cc3OC(N3CCOCC3)C2C)OCO4)cc(OC)c1O (stereo not drawn) | 18.4 | > 20.2 | > 100 | > 100 | > 74.9 | 46.3 | – | > 86.2 | – | – | – | – | – | –
COc1ccc(-c2cn3ccnc3c(-c3ccc4ncn(C5CCCCC5)c4c3)n2)cc1 | – | 6.15 | 4.5 | > 100 | > 100 | > 100 | – | > 100 | 0.424 | 0.761 | 0.64 | 0.692 | 0.944 | 0.621
O=C1NC(N2CCOCC2)=N/C1=C\c1ccccc1O | > 100 | > 100 | > 100 | > 100 | > 100 | > 100 | > 100 | > 100 | – | – | – | – | – | –
COC(=O)CC1C2CC3C(C2=O)C13 (stereo not drawn) | > 100 | > 100 | > 100 | > 100 | > 100 | > 100 | > 100 | > 100 | – | – | – | – | – | –
COc1cccc(/C=C/C2=NN(c3cccc(S(=O)(=O)O)c3)C3(C2)SCC(=O)N3c2nc3ccccc3s2)c1 (stereo not drawn) | > 100 | 28.4 | 52.8 | > 100 | > 100 | > 100 | > 100 | > 100 | – | – | – | – | – | –
